Test results taken from patent US20240174985A1, “METHOD FOR PRODUCING OVARIAN SOMATIC CELL-LIKE CELLS, AND METHOD FOR INDUCING DIFFERENTIATION OF PRIMATE PLURIPOTENT STEM CELLS INTO OVARIAN SOMATIC CELL-LIKE CELLS” (Kyoto University, priority 2021, published 2024).

Experiments:
Assay type in all cases: cell-based
human iPS cells [1] = assay: Induction of differentiation from human iPS cells into ovarian somatic cell-like cells (FACS of OSR1-tdTomato/NR5A1-EGFP reporters, observation of embryoid bodies)
From the text: In order to conveniently observe the expression of genes typical at each developmental stage, a human iPS cell line 1390G3 was genetically modified, and a DNA sequence that emits red fluorescence (tdTomato) with the expression of the OSR1 gene, green fluorescence (EGFP) with the expression of the NR5A1 gene, and red fluorescence (tdTomato) with the expression of the FOXL2 gene was manufactured (see FIG. 1, and after introduction into the chromosome, a portion of “PGKp-Neo (or Puro)-pA” portion was deleted with Cre). An iPS cell line into which two DNA sequences of OSR1 and NR5A1 had been introduced (which may be hereinafter abbreviated as “OTNG”), and an iPS cell line into which two DNA sequences of NR5A1 and FOXL2 had been introduced (which may be hereinafter abbreviated as “NGFT”) were manufactured. In the present test, the OTNG strain was used in most of the experiments. Furthermore, NR5A1 and SF1 are the same gene.
The cells at each stage were analyzed using a flow cytometer (BD FACSAria III).
The ES cells of monkeys and human iPS cells are considered to be similar to EpiLC in a slightly advanced state in terms of differentiation, as compared with mouse ES cells. Therefore, in the examination using monkey or human pluripotent stem cells in the present test, step 0 was omitted and the process was started from step 1. […] For this reason, Y27632 was added to step 1 to perform examination. In addition, a 96-well V-bottom plate was used as a culture plate and the cells were seeded so as to have 10,000 cells per well.
In a test using human cells, the base medium was changed from GMEM (used in mice) to DMEM including 7.5 v/v % KnockOut (registered trademark) Serum Replacement (KSR). In addition, the base medium includes 0.1 mM 2-mercaptoethanol, 100 U/mL penicillin/streptomycin, and 2 mM GlutaMax (registered trademark), but the additives and concentrations thereof are fixed, and the description following “2.” is omitted. The periods of step 1 and step 2 were set to be the same as those in the mouse protocol, and culture was continued under the condition of step 3. The entire medium was basically changed every two or three days. At the time of subculturing iPS cells, 30,000 cells were seeded on a low-adhesive plate to start the culture as aggregates.

human iPS cells [2] = assay: Quantitative PCR of marker genes in cells induced from human iPS cells; details: bFGF 5 ng/ml added in step 1; day 15 of induction
From the text: The relative expression level of each marker gene was confirmed using a PCR apparatus (BIO-RAD CFX384 Real-Time System) with the following primers and conditions. In the tables, the PPIA gene and the RPLP0 gene were used as housekeeping genes. The difference in qPCR is a difference from the average value taken as “(PPIA+RPLP0)/2”. In addition, the ERCC gene was used as an absolute control between samples.

[3] = system: cynomolgus monkey ES cells
[4] = system: cynomolgus monkey ES cells; assay: Quantitative PCR of marker genes in cells induced from cynomolgus monkey ES cells; details: without BMP4 and with the addition of LDN in step 1
Protocol: The relative expression level of each marker gene was confirmed using a PCR apparatus (BIO-RAD CFX384 Real-Time System) with the following primers and conditions. In the table, the primers of PAX3, OSR1, PAX2 #3, EMX2 #1, WT1 #2, and LHX9 #2 were used only in the experiment of FIG. 31C, and the primers of OSR1 #10, CXCL12×4, BMP2, and BMP4 were used only for the experiment in FIG. 57C. The GAPDH gene and the PPIA gene were measured as housekeeping genes, and relative values with the average of Ct values of the two genes as a control value are shown in the graph. Although not shown in the graph, ERCC-00096, ERCC-00009, ERCC-00022, and ERCC-00025 were used in combination as a control, except for the experiment of FIG. 31C.

[5] = concentration of LDN increased in step 1 (30, 100, 1,000 nM)

Molecule | states of the embryoid bodies (human iPS cells [1]; added between day 2 and day 4 of induction, step 1 plane culture) | differentiation induction efficiency (human iPS cells [1]; bFGF not present in step 1 (versus added)) | expression of the marker gene of posteriorization (human iPS cells [2]) | expression of OSR1 ([3]; added in step 1: bFGF 50 ng/mL entire period, Activin A 10 ng/ml one day from day 1, FACS days 2, 4, 6) | NR5A1-positive cells ([3]; addition of bFGF in step 1, periods 2-2-12 (days), day 16) | NR5A1-positive cell induction efficiency ([3]; addition of bFGF in step 1, periods 3-3-10 (days), day 16) | improvement of the induction of NR5A1-positive cells ([3]; bFGF 50 ng/ml and Activin A 10 ng/ml (only from day 1) in step 1, days 14 and 21) | concentration in step 1 at which number and proportion of the positive cells were maximal ([3]; periods 3-3-10 (days), day 16) [ng/mL] | induction of NR5A1-positive cells ([3]; addition in step 1 (BMS493 1 μM), FACS day 14) | improvement in the proportion of NR5A1-positive cells ([3]; addition of LDN in step 1 (30, 100, 1,000 nM), days 14, 17, 21) | OSR1 expression at the end point of step 1 (day 2.2) [3, 5] | increase in OSR1 expression in step 2 (days 4 and 6) [3, 5] | expression of FOXF1 [4]
bFGF: basic fibroblast growth factor (FGF2) | poor (dead) | higher | not recognized | acted toward enhancing the expression of OSR1 | no significant change | remarkable improvement | not recognized | 5 |  |  |  |  | 
c1ccc2c(-c3cnn4cc(-c5ccc(N6CCNCC6)cc5)cnc34)ccnc2c1 [LDN193189] |  |  |  |  |  |  |  |  | no particular advantage | almost no improvement | decreased | became weaker | almost disappeared
